# Results taken from patent publication US11220534B2, “Treatment of neurological diseases” (Lancaster University Business Enterprises Limited, priority 2016, dated 2022).
# Where no end group is shown, it is not given here. [ ]: non-standard residue; d: D form. Aib = CC(C)(N)C(=O)O
# Tested on: APP/PS1 mice
# Assay: Reversal Morris water maze test
# Type: in vivo
# From the text: Materials and methods in Example 2 are the same as Example 1 except when stated. Reagents used in Example 2 only include antibodies to p-PI3Kp85, PI3Kp85, p-Akt (ser473), Akt, p-GSK3β (Y216), and GSK3β from Abcam, Inc. Cambridge, UK. The antibody to p-tau (AT8) from Thermo Scientific USA. Mouse Anti-β-actin, Anti-Rabbit IgG, Anti-mouse IgG, CY3-Anti-mouse IgG, RIPA Lysate, BCA Protein Assay Kit, DAPI staining solution and Anti-fluorescence decay agent from Boster (Wuhan, China).
# Classical Morris water maze (MWM) test was used to investigate spatial reference memory of mouse. The water maze mainly included a stainless steel pool and a platform in the pool for escape. There were several landmarks fixed to the walls of the water maze. The pool was filled with tap water at 22±2° C. The first phase was acquisition trial phase which was consisted of five training days (days 1-5) and four trials each day. The pool (diameter, 120 cm; high, 50 cm) was divided into four quadrants and the escape platform (diameter, 12 cm) hidden 1 cm beneath the water surface was placed in the center of the first quadrant. […] The escape latencies were recorded by Ethovision 3.0 software system (Noldus Information Technology, the Netherlands). […] The percentage of swimming time in target quadrant (the first quadrant) and frequency of platform crossing were recorded. […] Swimming time to target was recorded.
substance,measurement,setting,value
"YXEGTFTSDYSIYLDKQAAXEFVNWLLAGGPSSGAPPPSKRRQRRKKRGY-NH2 (Y[Aib]EGTFTSDYSIYLDKQAA[Aib]EFVNWLLAGGPSSGAPPPSKRRQRRKKRGY-NH2) [DA5, No. 12; X=aminoisobutyric acid]","probe test, recall of a change in escape route (reverse Morris water maze)","APP/PS1 mice vs APP/PS1-saline, FIG. 8c, 8d",recalled a change in escape route to a greater extent than APP/PS1-saline mice
same,cognitive flexibility and ability to relearn (reverse Morris water maze),"APP/PS1 mice, FIG. 8, N=8-14 per group",protects APP/PS1 mice from decreased cognitive flexibility and restores their ability to relearn
